Calls of active or inactive are those of the source. No cut-off for these calls is given here. Where only a bound is given, the exact number is not on record here.

The results in this text go back to ChEMBL document CHEMBL4052743, “Oxindole-based intraocular pressure reducing agents” (Bioorg Med Chem Lett, 2017).

The species entered for series [1] is Oryctolagus cuniculus. The series can be described thus: Reduction in intraocular pressure in Chinchilla rabbit assessed as maximum effective time required for reduction of intraaocular pressure at 0.1% after application of one drop (0.06 ml) of solution containing active compound/vehicle every hour (during 6 hours and after 24 hours) and measured after 24 hrs post dose by automatic tonometry. Format: functional.

For series [2], the species on record is Oryctolagus cuniculus. The series can be described thus: Reduction in intraocular pressure in Chinchilla rabbit assessed as maximal change in intraocular pressure at 0.1% after application of one drop (0.06 ml) of solution containing active compound/vehicle every hour (during 6 hours and after 24 hours) by automatic tonometry. Format: functional.
Series [3] is described as follows: Toxicity in rat. The conditions noted are these: in vivo.
For series [4], the species on record is Oryctolagus cuniculus. Description: Reduction in intraocular pressure in Chinchilla rabbit assessed as maximum effective time required for reduction of intraaocular pressure at 0.1% after application of one drop (0.06 ml) of solution containing active compound/vehicle every hour (during 6 hours and after 24 hours) by automatic tonometry. Format: functional.

Series [5] concerns Oryctolagus cuniculus. The series can be described thus: Reduction in intraocular pressure in New Zealand white rabbit at 100 mg/10 ml dosed via topical route measured after 0.5 to 6 hrs post dose by tonometry. Set-up: scale not given: the % may be the effect or the level left. The class given is functional.
Series [6] in a line: Binding affinity to MT-3 (unknown origin). The arrangement: species or system Homo sapiens.
Series [7] in a line: Inhibition of MT-3 (unknown origin). The arrangement: species or system Homo sapiens.
The target of series [8] is T1, Ribosyldihydronicotinamide dehydrogenase [quinone] (Homo sapiens, UniProt P16083).
T1 sequence (P16083 whole entry): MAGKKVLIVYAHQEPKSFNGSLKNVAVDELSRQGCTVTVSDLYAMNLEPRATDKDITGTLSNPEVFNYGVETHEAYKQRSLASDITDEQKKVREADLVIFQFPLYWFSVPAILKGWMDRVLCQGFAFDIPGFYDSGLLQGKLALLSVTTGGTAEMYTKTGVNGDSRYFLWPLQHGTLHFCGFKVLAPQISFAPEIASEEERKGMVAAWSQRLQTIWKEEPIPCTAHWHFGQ
The series can be described thus: Inhibition of QR2 (unknown origin) using MTT and NMeH as substrates.

For series [9], the target named is T2, Ribosyldihydronicotinamide dehydrogenase [quinone] (Homo sapiens) (UniProt P16083).
T2 sequence (whole entry): T1 sequence (P16083 whole entry)
Description: Inhibition of QR2 (unknown origin) using MTT and NMeH as substrates relative to control.

The nature of series [10]: Solubility in water. The conditions noted are these: buffer. Format: physicochemical.
The species named for series [11] is Oryctolagus cuniculus. The series can be described thus: Reduction in intraocular pressure in Chinchilla rabbit assessed as maximum effective time required for reduction of intraaocular pressure at 0.1% after application of one drop (0.06 ml) of solution containing active compound/vehicle every hour (during 6 hours and after 24 hours) and measured after 6 hrs post dose by automatic tonometry. The class given is functional.

For series [12], the species on record is Oryctolagus cuniculus. Description: Reduction in intraocular pressure in Chinchilla rabbit assessed as maximum effective time required for reduction of intraaocular pressure at 0.1% after application of one drop (0.06 ml) of solution containing active compound/vehicle every hour (during 6 hours and after 24 hours) by applanation tonometry. The class given is functional.

The species named for series [13] is Oryctolagus cuniculus. The series can be described thus: Reduction in intraocular pressure in Chinchilla rabbit assessed as maximal change in intraocular pressure at 0.1% after application of one drop (0.06 ml) of solution containing active compound/vehicle every hour (during 6 hours and after 24 hours) by applanation tonometry. Format: functional. Set-up: scale not given: the % may be the effect or the level left.

The species entered for series [14] is Oryctolagus cuniculus. The series can be described thus: Reduction in intraocular pressure in Chinchilla rabbit assessed as maximal change in intraocular pressure at 0.5% after application of one drop (0.06 ml) of solution containing active compound/vehicle every hour (during 6 hours and after 24 hours) by applanation tonometry. Format: functional.
The species named for series [15] is Oryctolagus cuniculus. Description: Reduction in intraocular pressure in Chinchilla rabbit assessed as maximal change in intraocular pressure at 1% after application of one drop (0.06 ml) of solution containing active compound/vehicle every hour (during 6 hours and after 24 hours) by applanation tonometry. Format: functional.

As to `CC(=O)Nc1ccc2c(c1)C(CC#N)C(=O)N2C` (stereo not drawn), the outcome in the series filed under Oryctolagus cuniculus [1] and in the series filed under Oryctolagus cuniculus [2] was inactive. Further, the LD50 (usually the dose expected to kill half of the subjects tested) in [3] was over 2400 mg/kg. In the series listed under Oryctolagus cuniculus [4], the Time result is “inactive”.

`COC(=O)Nc1ccc2[nH]cc(CCNC(C)=O)c2c1` had an Activity with Oryctolagus cuniculus [5] of 45%. Moreover, in series [6], the inhibitory constant (Ki) (as a rule, the equilibrium dissociation constant of an inhibitor or competing ligand from its target) worked out at 0.065 µM. Besides, in [7], the 50% inhibitory concentration (IC50) (commonly the concentration needed to halve the response being measured) was 0.058 µM.

Take `CC(=O)NCCC1C(=O)Nc2ccc(Br)cc21` (stereo not drawn): in series [8], the IC50 was found to be 19 µM. Besides, the result in the series listed under Oryctolagus cuniculus [1] and in the series filed under Oryctolagus cuniculus [2] was inactive. Besides, in [3], the LD50 was over 2400 mg/kg. Also, in [9], the Imax was determined as 29.9%. Besides, the Time result in the series filed under Oryctolagus cuniculus [4] is “inactive”.

Take `CCC(=O)Nc1cc(NC(=O)CC)c2c(c1)C(O)(CC#N)C(=O)N2` (stereo not drawn): the outcome in the series filed under Oryctolagus cuniculus [1] was inactive. In addition, in the series filed under Oryctolagus cuniculus [2], the Activity is listed as 29%. This compound also gave an LD50 in series [3] of over 2400 mg/kg. Besides, the Time in the series filed under Oryctolagus cuniculus [4] was 4 h.

Turning to `CC(=O)Nc1ccc2c(c1)C(CC(=O)O)C(=O)N2` (stereo not drawn), in series [10], the solubility result is given as “Soluble”. In addition, the Activity in the series listed under Oryctolagus cuniculus [2] is given as 41%. The same compound returned a 50% lethal dose (LD50) in [3] of over 2400 mg/kg. Further, in the series filed under Oryctolagus cuniculus [11], the outcome was Active. The Time in the series listed under Oryctolagus cuniculus [4] turned out to be 4 h.

On to `CC(C)(C)NC[C@H](O)COc1nsnc1N1CCOCC1` [TIMOLOL], for which the Time in the series filed under Oryctolagus cuniculus [12] stood at 3 h; in the series listed under Oryctolagus cuniculus [4], 4 h. The result in the series listed under Oryctolagus cuniculus [1] was inactive. Further, the Activity in the series filed under Oryctolagus cuniculus [13] came out at 11%; in the series listed under Oryctolagus cuniculus [2], 32%.

Turning to `COc1ccc2c(c1)C1(CC1CNC(C)=O)C(=O)N2C` (stereo not drawn), it took 5.1 µM to reach half-maximal inhibition in series [8] (IC50). The result in the series listed under Oryctolagus cuniculus [1] was inactive. Moreover, the Activity in the series listed under Oryctolagus cuniculus [2] was 10%. This compound registered a 50% lethal dose (LD50) in series [3] of over 2400 mg/kg. Besides, the Imax in series [9] was 93.9%. Also, in the series filed under Oryctolagus cuniculus [4], the Time amounted to 2 h.

For the compound `CC(=O)Nc1ccc2c(c1)C(O)(CC(=O)O)C(=O)N2` (stereo not drawn), the result in the series listed under Oryctolagus cuniculus [1] was inactive. The Activity in the series filed under Oryctolagus cuniculus [2] is recorded as 18%. This compound also displayed an LD50 in series [3] of over 2400 mg/kg. Besides, the Time in the series filed under Oryctolagus cuniculus [4] was 2 h.

In the case of `CC(=O)Nc1cc(NC(C)=O)c2c(c1)C(CC#N)(OC(C)=O)C(=O)N2` (stereo not drawn), the outcome in the series listed under Oryctolagus cuniculus [1] and in the series listed under Oryctolagus cuniculus [15] was inactive. Moreover, the Activity in the series listed under Oryctolagus cuniculus [2] stood at 21%. Further, in series [3], the LD50 was over 2400 mg/kg. In addition, the outcome in the series listed under Oryctolagus cuniculus [14] was Active. Besides, in the series listed under Oryctolagus cuniculus [4], the Time worked out at 2 h.

Turning to `CCOC(=O)C(C(=O)O)C1C(=O)Nc2ccc(OC)cc21` (stereo not drawn), the outcome in the series filed under Oryctolagus cuniculus [1] was inactive. The Activity in the series listed under Oryctolagus cuniculus [2] came to 18%. In series [3], this compound yielded an LD50 of over 2400 mg/kg. Moreover, the Time in the series filed under Oryctolagus cuniculus [4] came out at 4 h.

For the compound `COc1cc(NC(C)=O)c2c(c1)C(CC#N)(OC(C)=O)C(=O)N2` (stereo not drawn), the result in the series filed under Oryctolagus cuniculus [1] was inactive. Moreover, the Activity in the series filed under Oryctolagus cuniculus [2] came to 18%. Also, in series [3], the LD50 is over 2400 mg/kg. Besides, the Time in the series listed under Oryctolagus cuniculus [4] was 2 h.

For the compound `CC(=O)NCCC1C(=O)Nc2ccc(NC(C)=O)cc21` (stereo not drawn), the result in the series listed under Oryctolagus cuniculus [1] and in the series filed under Oryctolagus cuniculus [2] was inactive. Further, in series [3], the LD50 was over 2400 mg/kg. Besides, the Time entry in the series filed under Oryctolagus cuniculus [4] is “inactive”.

On to `CC(=O)Nc1ccc2c(c1)C(O)(CC#N)C(=O)N2` (stereo not drawn), for which the outcome in the series filed under Oryctolagus cuniculus [1] and in the series listed under Oryctolagus cuniculus [2] was inactive. The 50% lethal dose (LD50) in series [3] is over 2400 mg/kg. Also, in the series filed under Oryctolagus cuniculus [4], the Time entry is “inactive”.

As to `N#CCC1C(=O)Nc2ccc(Br)cc21` (stereo not drawn), the result in the series filed under Oryctolagus cuniculus [1] and in the series filed under Oryctolagus cuniculus [2] was inactive. In addition, in series [3], the LD50 is over 2400 mg/kg. The Time result in the series listed under Oryctolagus cuniculus [4] is “inactive”.

In [8], `CC(=O)NCCc1cn(C)c2c(C)c(C)ccc12` displayed an IC50 of 4.5 µM. Also, the outcome in the series filed under Oryctolagus cuniculus [1] and in the series listed under Oryctolagus cuniculus [2] was inactive. For the same compound, the LD50 in series [3] is over 2400 mg/kg. The same compound had an Imax in [9] of 97.4%. For the same compound, the Time entry in the series filed under Oryctolagus cuniculus [4] was “inactive”.

`COc1ccc2[nH]cc(CCNC(C)=O)c2c1` [MELATONIN]: the Time in the series listed under Oryctolagus cuniculus [12] turned out to be 4 h; in the series listed under Oryctolagus cuniculus [4], 3 h. In addition, the result in the series listed under Oryctolagus cuniculus [1] and in the series listed under Oryctolagus cuniculus [15] was inactive. Besides, the Activity in the series filed under Oryctolagus cuniculus [13] was 12%; in the series filed under Oryctolagus cuniculus [2] it was 26 - 31%.

With `COc1ccc2c(c1)C(CC#N)C(=O)N2` (stereo not drawn), the result in the series filed under Oryctolagus cuniculus [1] and in the series filed under Oryctolagus cuniculus [2] was inactive. For the same compound, the median lethal dose (LD50) in series [3] was over 2400 mg/kg. Further, in the series filed under Oryctolagus cuniculus [4], the Time result was “inactive”.

In the case of `CC(=O)Nc1ccc2c(c1)C(CC#N)C(=O)N2` (stereo not drawn), the outcome in the series listed under Oryctolagus cuniculus [1] was inactive. In addition, the Activity in the series filed under Oryctolagus cuniculus [2] is 22%. This compound also registered an LD50 in [3] of over 2400 mg/kg. Further, in the series listed under Oryctolagus cuniculus [4], the Time worked out at 4 h.

`CCC(=O)Nc1cc(NC(=O)CC)c2c(c1)C(CC#N)(OC(=O)CC)C(=O)N2` (stereo not drawn): the outcome in the series listed under Oryctolagus cuniculus [1] was inactive. Besides, in the series filed under Oryctolagus cuniculus [2], the Activity was determined as 15%. Also, the LD50 in [3] is over 2400 mg/kg. The Time in the series listed under Oryctolagus cuniculus [4] came to 2 h.

Regarding `CC(=O)Nc1cccc2c1NC(=O)C2CC#N` (stereo not drawn), the outcome in the series listed under Oryctolagus cuniculus [1] and in the series filed under Oryctolagus cuniculus [2] was inactive. In series [3], this compound yielded a median lethal dose (LD50) of over 2400 mg/kg. Besides, the Time result in the series listed under Oryctolagus cuniculus [4] is “inactive”.

For the compound `CC(=O)NCCC1(O)C(=O)Nc2ccc(NC(C)=O)cc21` (stereo not drawn), the outcome in the series filed under Oryctolagus cuniculus [1] and in the series filed under Oryctolagus cuniculus [2] was inactive. In series [3], this compound returned an LD50 of over 2400 mg/kg. For the same compound, the Time entry in the series listed under Oryctolagus cuniculus [4] is “inactive”.

`COc1ccc2[nH]c(Cl)c(CCNC(C)=O)c2c1` yielded a 50% inhibitory concentration (IC50) in [8] of 13 µM. Also, the result in the series filed under Oryctolagus cuniculus [1] and in the series listed under Oryctolagus cuniculus [2] was inactive. The LD50 in [3] is over 2400 mg/kg. In series [9], this compound showed an Imax of 91%. The Time entry in the series listed under Oryctolagus cuniculus [4] is “inactive”.

Take `COc1ccc2c(c1)c(CCNC(C)=O)cn2C`: the IC50 in series [8] was 5.7 µM. In addition, in the series listed under Oryctolagus cuniculus [1], the outcome was inactive. Besides, the Activity in the series listed under Oryctolagus cuniculus [2] is reported as 8%. Besides, the 50% lethal dose (LD50) in series [3] was over 2400 mg/kg. This compound gave an Imax in [9] of 102%. Further, the Time in the series filed under Oryctolagus cuniculus [4] was determined as 2 h.

Compound `COc1ccc2c(c1)C1(C(=O)N2)C2CCC(C2)C1CNC(C)=O` (stereo not drawn) returned an IC50 in series [8] of 63 µM. Moreover, the outcome in the series listed under Oryctolagus cuniculus [1] and in the series filed under Oryctolagus cuniculus [2] was inactive. The 50% lethal dose (LD50) in series [3] is over 2400 mg/kg. The compound also showed an Imax in series [9] of 59.6%. Besides, the Time entry in the series filed under Oryctolagus cuniculus [4] was “inactive”.
